Where two headings read alike, the source gives them in different places.
Key:
[1] = lipid content 20% by weight, room temperature
Source text: Ester mixture A: a glycerol triesters of caprylic acid (70%) and capric acid (30%)
Ester mixture D: 50% soy bean oil and 50% glycerol triesters of caprylic acid (70%) and capric acid (30%)

[2] = lipid content 20%, room temperature
[3] = Ester mixture A (glycerol triesters of caprylic acid 70% and capric acid 30%)
[4] = Ester mixture B (propylene glycol diesters of caprylic acid 75% and capric acid 25%)
[5] = Ester mixture C (75% glycerol triesters, 12.5% diesters, 12.5% monoesters of caprylic/capric acid)
[6] = Ester mixture D (50% soy bean oil and 50% glycerol triesters of caprylic acid 70% and capric acid 30%)

| SMILES | Solubility of the medicament in the emulsion [1, 3] | Solubility of the medicament in the emulsion [1, 4] | Solubility of the medicament in the emulsion [1, 5] | Solubility of the medicament in the emulsion [1, 6] | Solubility of the medicament in the emulsion ([1]; Soy bean oil) | Solubility of nimodipine in soy bean oil emulsion ([2]; benzyl alcohol 0% W/W) | Solubility of nimodipine in soy bean oil emulsion ([2]; benzyl alcohol 2% W/W) | Solubility of nimodipine in soy bean oil emulsion ([2]; benzyl alcohol 4% W/W) | Solubility of nimodipine in soy bean oil emulsion ([2]; benzyl alcohol 5% W/W) |
| --- | --- | --- | --- | --- | --- | --- | --- | --- | --- |
| CC(c1ccc(Cl)c(Cl)c1)N1N=C(N)CC1=O (stereo not shown) [Muzolimine] | 0.06 % (W/W) | 0.06 % (W/W) | 0.32 % (W/W) | 0.02 % (W/W) | 0.01 % (W/W) |  |  |  |  |
| CCOC(=O)C1=C(C)NC(C)=C(C(=O)OC)C1c1cccc([N+](=O)[O-])c1 (stereo not shown) [Nitrendipine] | 0.08 % (W/W) | 0.12 % (W/W) | 0.14 % (W/W) | 0.05 % (W/W) | 0.03 % (W/W) |  |  |  |  |
| CCCOC(=O)Cc1ccc(OCC(=O)N(CC)CC)c(OC)c1 [Propanidide] |  |  |  |  | 2.80 % (W/W) |  |  |  |  |
| COCCOC(=O)C1=C(C)NC(C)=C(C(=O)OC(C)C)C1c1cccc([N+](=O)[O-])c1 (stereo not shown) [Nimodipine] | 0.16 % (W/W) | 0.26 % (W/W) | 0.50 % (W/W) | 0.08 % (W/W) | 0.04 % (W/W) | 0.04% | 0.08% | 0.16% | 0.18% |
| COC(=O)C1=C(C)NC(C)=C(C(=O)OCC(C)C)C1c1ccccc1[N+](=O)[O-] (stereo not shown) [Nisoldipine] | 0.14 % (W/W) | 0.18 % (W/W) | 0.20 % (W/W) | 0.08 % (W/W) | 0.04 % (W/W) |  |  |  |  |
